Assay results published in US20190119196A1, “COMPOUNDS FOR THE TREATMENT OF […]” (priority 2016, published 2019).
Where a name gives a salt, the structure may show the parent alone. Read-outs that look alike come from different tables or passages of the source.

Legend:
L6-myotubes [1] = assay: Glucose uptake in differentiated L6-myotubes (3H-2-deoxy-glucose); type: cell-based; settings: read-out: Biological example 1: glucose uptake, % increase over the basal level
Procedure: (§1) L6-myoblasts were grown in Dulbecco's Modified Eagle's Medium (DMEM) containing 4,5 g/I glucose supplemented with 10% fetal bovine serum, 2 mM L-Glutamine, 50 U/ml penicillin, 50 μg/ml streptomycin and 10 mM HEPES. Cells were plated at 1×10^5 cells per ml in 24-well plates. After reaching 90% confluence the cells were grown in medium containing 2% FBS for 7 days where upon cells differentited into myotubes.
Differentiated L6-myotubes were serum-starved over night in medium containing 0.5% fatty-acid free BSA and stimulated with agonist, […], glucose free medium or PBS and another portion of agonist was added to glucose free medium. […] Cell lysate was mixed with scintillation buffer (Emulsifier Safe, Perkin Elmer and radioactivity detected in a β-counter (Tri-Carb 2800TR, Perkin Elmer). The numerical values in the table are given as % increase over the basal level.

L6-myotubes [2] = assay: Measurement of intracellular cAMP levels (alpha screen cAMP kit); type: cell-based; settings: agonist final concentration 1×10^−5, 15 min; differentiated cells; 1 mM IBMX
Procedure: as §1
Differentiated cells were serum-starved over night and stimulated with agonist, final concentration 1×10−^5, for 15 min in stimulation buffer (HBSS supplemented with 1% BSA, 5 mM HEPES and 1 mM IBMX, pH 7,4) The medium was then aspirated and to end the reaction 100 μL of 95% EtOH was added to each well of a 24-well plate and cells were kept in −20° C. over night. The EtOH was let to evaporate and 500 μL of lysis buffer (1% BSA, 5 mM HEPES and 0,3% Tween-20, pH 7.4) was added to each well before put in −80° C. for 30 min and then kept in −20° C. Intracellular cAMP levels were detected using an alpha screen cAMP kit (6760635D from Perkin Elmer). The numerical values in the table are given as % increase over the basal level.

human β2-adrenoceptor = target: T1, human β2-adrenoceptor (Homo sapiens, UniProt P07550); assay: 3H-CGP 12177 whole cell β2 binding
T1 construct: expressed in transfected cells
Procedure: ^3H-CGP 12177 Whole Cell β2 Binding
Chinese Hamster Ovary (CHO) cells stably expressing the human β2-adrenoceptor were grown in Dulbecco's modified Eagle's medium nutrient mix F12 (DMEM/F12) containing 10% fetal calf serum and 2 mM L-glutamine in a 37° C. humidified 5% CO2:95% air atmosphere. The cells were seeded (100 000 cells/mL) into white-sided, clear-bottomed 96-well isoplates and allowed to grow to confluence for the following day's experiment. Next day, the media was removed from each well of the isoplate. Aliquots of the test compounds (10^−2 M in DMSO) were diluted in DMEM/F12 containing 2 mM L-glutamine (serum-free media) to final concentration ranges of 10^−4 M to 10^−10 M and added to each well. The radioligand ^3H-CGP 12177 was diluted in the same medium (˜1 nM final well concentration) and added to each well. Propranolol and CGP 12177 (10 μM) were used to measure non-specific binding. The cells were incubated for 2 hours at 37° C. After incubation, the cells were washed twice by the addition and removal of 200 μL ice-cold phosphate-buffered saline (PBS). Cells were then lysed with Optiphase Supermix cocktail (100 μL/well) and a clear sealant top was applied to the plate. The plate was left overnight in the dark at room temperature, centrifuged (1000 rpm, 1 min) and measured in a MicroBeta2 Microplate Counter (Perkin Elmer) (10 minutes pre-incubation, 2 min counts/well).
All data points on each binding curve were measured in duplicates. Each 96-well plate also contained four determinations of total and non-specific binding. Non-specific binding was determined in the presence of CGP 12177 and propranolol (10 μM). […] All data points are measured in counts per minute (CPM) and converted into disintegrations per minute (DPM) by dividing the count rate (CPM) with the counting efficiency of the instruments detector (57%). The numerical values were obtained by using the GraphPad Prism 7 programme and are given as -log K (pKi) in the table.

[3] = CHO cells stably expressing the human β2-adrenoceptor, ~1 nM 3H-CGP 12177, 2 hours at 37° C., read-out: Biological example 3: -log K (pKi), 3H-CGP 12177 whole cell β2 binding (converted)
[4] = agonist final concentration 1×10^−5, differentiated L6-myotubes, 50 nM 3H-2-deoxy-glucose

T1 sequence (P07550 whole entry): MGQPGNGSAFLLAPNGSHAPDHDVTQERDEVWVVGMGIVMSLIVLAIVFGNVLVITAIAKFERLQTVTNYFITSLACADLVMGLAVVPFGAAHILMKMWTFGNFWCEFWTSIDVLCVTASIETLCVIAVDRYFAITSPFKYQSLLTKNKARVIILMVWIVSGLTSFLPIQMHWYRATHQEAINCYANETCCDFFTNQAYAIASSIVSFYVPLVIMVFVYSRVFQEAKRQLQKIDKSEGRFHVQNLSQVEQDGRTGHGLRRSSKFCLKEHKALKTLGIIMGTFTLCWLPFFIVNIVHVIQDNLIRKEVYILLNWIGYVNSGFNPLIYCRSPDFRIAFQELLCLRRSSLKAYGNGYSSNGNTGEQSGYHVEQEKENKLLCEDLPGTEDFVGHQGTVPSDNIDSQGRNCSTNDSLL

Compound	activation (L6-myotubes [1])	Biological example 2: intracellular cAMP levels, % increase over the basal level (L6-myotubes [2])	Ki (human β2-adrenoceptor; [3])	Ki (human β2-adrenoceptor)	activation (L6-myotubes [1]; [4])
CCCCNCC(O)c1cc(Cl)c(O)c(Cl)c1 (stereo not drawn) [Example 26, 4-(2-(Butylamino)-1-hydroxyethyl)-2,6-dichlorophenol]	10%	−0.3%	25.1 µM	–	–
CCCCNCC(O)c1cc(Cl)c(N)c(Cl)c1 (stereo not drawn) [Example 29, 1-(4-Amino-3,5-dichlorophenyl)-2-(butylamino)ethan-1-ol trifluoroacetate]	48%	222%	–	0.316 µM	–
CCCCNCC(O)c1cc(Cl)c(N)c(C(F)(F)F)c1 (stereo not drawn) [Example 30, 1-(4-Amino-3-chloro-5-(trifluoromethyl)phenyl)-2-(butylamino)ethan-1-ol]	–	231%	–	0.0794 µM	50%
CCCCNCC(O)c1ccc(Cl)c(O)c1 (stereo not drawn) [Example 32, 5-(2-(Butylamino)-1-hydroxyethyl)-2-chlorophenol]	–	371%	6.31 µM	–	53%
CCCCNCC(O)c1ccc(Cl)c(N)c1 (stereo not drawn) [Example 34, 1-(3-Amino-4-chlorophenyl)-2-(butylamino)ethan-1-ol]	–	0%	3.16 µM	–	20%
CCCCNCC(O)c1cc(F)c(N)c(F)c1 (stereo not drawn) [Example 35, 1-(4-Amino-3,5-difluorophenyl)-2-(butylamino)ethan-1-ol]	–	6536%	3.98 µM	–	65%
